In patent US11040028B2, “Penicinotam derivative, preparation method and use thereof” (OCEAN UNIVERSITY OF CHINA, priority 2017, dated 2021) one finds IC50 data, which are given here for 14 molecules.

The term IC50 denotes the concentration that gives 50% inhibition.

Common to all, as to type: cell-based
Experiment [1] has as its system BHK-21 cells. The experiment can be described thus: Anti-fibrosis activity test: inhibition of BHK-21 cell proliferation (CCK-8). The settings on record: Mesocricetus auratus, BHK-21, 48 h, CCK-8, 48 hours after administration. Summed up:
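Cells seeded at 2×10^4 cells/mL, allowed to adhere 24 hours, then exposed to graded compound concentrations in triplicate for 48 hours at 37° C, 5% CO2. CCK-8 added for 2 hours, absorbance read at 450 nm; inhibition versus blank control used to derive IC50. Pirfenidone served as positive control.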

In experiment [2] the test system is human lung fibroblasts HFL1. As to the kind of experiment: Anti-fibrosis activity test: inhibition of proliferation of human lung fibroblasts HFL1 (CCK-8). Particulars: Homo sapiens, HFL1, 48 h, human lung fibroblasts HFL1, CCK-8, 48 hours. Summed up: (§1)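 Seed 2×10^4 cells/mL; adhere 24 h, 37° C/5% CO2. Compounds, serial concentrations, triplicate, 48 h. CCK-8 2 h, A450. IR=(1−Ai/Ao)×100% vs blank; IC50 fitted. Pirfenidone as positive control.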

In experiment [3] the test system is human hepatic stellate cells LX-2. The experiment can be described thus: Anti-fibrosis activity test: inhibition of proliferation of human hepatic stellate cells LX-2 (CCK-8). The settings on record: Homo sapiens, 48 h, human hepatic stellate cells LX-2, CCK-8, 48 hours. In outline:
as §1

Experiment [4] relates to human fibrosarcoma cells HT-1080. The experiment can be described thus: Anti-fibrosis activity test: inhibition of proliferation of human fibrosarcoma cells HT-1080 (CCK-8). The settings on record: Homo sapiens, HT-1080, 48 h, human fibrosarcoma cells HT-1080, CCK-8, 48 hours. In outline:
as §1

Experiment [5] deals with human dermal fibroblasts CCC-ESF-1. As to the kind of experiment: Anti-fibrosis activity test: inhibition of proliferation of human dermal fibroblasts CCC-ESF-1 (CCK-8). Particulars: Fibroblast; human dermal fibroblasts CCC-ESF-1, CCK-8, 48 hours. In outline: as §1
Experiment [6] has as its system human embryonic lung fibroblast IMR-90. As to the kind of experiment: Anti-fibrosis activity test: inhibition of proliferation of human embryonic lung fibroblast IMR-90 (CCK-8). The settings on record: human embryonic lung fibroblast IMR-90, CCK-8, 48 hours. In outline: as §1
Experiment [7] deals with cardiac fibroblast RAT-iCell-C002. As to the kind of experiment: Anti-fibrosis activity test: inhibition of proliferation of cardiac fibroblast RAT-iCell-C002 (CCK-8). The settings on record: Cardiac fibroblast, 48 h, cardiac fibroblast RAT-iCell-C002, CCK-8, 48 hours. Summed up: as §1
Experiment [8] relates to mouse macrophages (RAW264.7). The experiment can be described thus: Lipopolysaccharide-induced NO secretion in macrophages (Griess). The settings on record: Mus musculus, RAW264.7, 24 h, RAW264.7, LPS 1 μg/ml, a/b isomers given as first/second symbol, read-out: IC50 (μM), inhibition of lipopolysaccharide-induced NO secretion in macrophages. Summed up: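 LPS 1 μg/ml, 24 h, RAW264.7 (DMEM/10% FBS); cpds at varied concs. Supernatant NO by Griess, A548; % inhibition vs blank medium.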

In the case of `O=C1c2c(nc3cc(N4CCNCC4)c(Cl)cc3c2O)-c2cccn21` [Compound 373b, 7-chloro-9-hydroxy-6-(piperazin-1-yl)-10H-pyrrolizino[1,2-b]quinolin-10-one], the IC50 in experiment [1], in experiment [2], in experiment [3], in experiment [4], in experiment [5] and in experiment [6] was 0.05 to 5 mM each time. Also, the IC50 in experiment [7] lay within 0.05 to 5 mM; in experiment [8], 1 to 10 µM.
On to `O=C1c2c([nH]c3cc(N4CCNCC4)c(C(F)(F)F)cc3c2=O)-c2cccn21` [Compound 397a, 6-(Piperazin-1-yl)-7-(trifluoromethyl)-9H-pyrrolizino[1,2-b]quinoline-9,10(4H)-dione], for which the IC50 in experiment [1], in experiment [2], in experiment [3], in experiment [4], in experiment [5] and in experiment [6] was 0.05 to 5 mM in each case. Besides, the IC50 lay in the range of 0.05 to 5 mM in experiment [7] and 0.1 to 1 µM in experiment [8].
For the molecule `O=C1c2c(nc3cc(N4CCNCC4)c(C(F)(F)F)cc3c2O)-c2cccn21` [Compound 397b, 9-hydroxy-6-(piperazin-1-yl)-7-(trifluoromethyl)-10H-pyrrolizino[1,2-b]quinolin-10-one], the IC50 in experiment [1], in experiment [2], in experiment [3], in experiment [4], in experiment [5] and in experiment [6] was 0.05 to 5 mM in each case. Moreover, the IC50 in experiment [7] was in the range of 0.05 to 5 mM; in experiment [8], 0.1 to 1 µM.
With `O=C1c2c([nH]c3cc(N4CCNCC4)c(OC(F)(F)F)cc3c2=O)-c2cccn21` [Compound 409a, 6-(Piperazin-1-yl)-7-(trifluoromethoxy)-9H-pyrrolizino[1,2-b]quinoline-9,10(4H)-dione], the 50% inhibitory concentration (IC50) in experiment [1], in experiment [2], in experiment [3], in experiment [4], in experiment [5] and in experiment [6] was 0.05 to 5 mM throughout. For the same molecule, the IC50 in experiment [7] lay in the range of 0.05 to 5 mM; in experiment [8] it was 1 to 10 µM.
In the case of `O=C1c2c(nc3cc(N4CCNCC4)c(OC(F)(F)F)cc3c2O)-c2cccn21` [Compound 409b, 9-hydroxy-6-(piperazin-1-yl)-7-(trifluoromethoxy)-10H-pyrrolizino[1,2-b]quinolin-10-one], the IC50 in experiment [1], in experiment [2], in experiment [3], in experiment [4], in experiment [5] and in experiment [6] was 0.05 to 5 mM throughout. In addition, the concentration for half-maximal inhibition (IC50) in experiment [7] was in the range of 0.05 to 5 mM; in experiment [8], 1 to 10 µM.
Regarding `N#Cc1cccc2c(=O)c3c(n(Cc4ccc(F)cc4)c12)-c1cccn1C3=O` [Compound 449a, 4-(4-Fluorobenzyl)-9,10-dioxo-4,10-dihydro-9H-pyrrolizino[1,2-b]quinoline-5-carbonitrile], the concentration for half-maximal inhibition (IC50) in experiment [1], in experiment [2], in experiment [3], in experiment [4], in experiment [5] and in experiment [6] was 0.05 to 5 mM each time. For the same molecule, the values for the half-maximal inhibitory concentration (IC50) in experiment [7] and in experiment [8] were 0.05 to 5 mM and 1 to 10 µM, respectively.
In the case of `N#Cc1cccc2c(OCc3ccc(F)cc3)c3c(nc12)-c1cccn1C3=O` [Compound 449b, 9-((4-fluorobenzyl)oxy)-10-oxo-10H-pyrrolizino[1,2-b]quinoline-5-carbonitrile], the IC50 in experiment [1], in experiment [2], in experiment [3], in experiment [4], in experiment [5] and in experiment [6] was 0.05 to 5 mM each time. Further, the values for the half-inhibitory concentration (IC50) in experiment [7] and in experiment [8] were 0.05 to 5 mM and 1 to 10 µM, respectively.
`O=C1c2c(n(Cc3ccc(Cl)cc3)c3c(C(F)(F)F)cccc3c2=O)-c2cccn21` [Compound 450a, 4-(4-Chlorobenzyl)-5-(trifluoromethyl)-9H-pyrrolizino[1,2-b]quinoline-9,10(4H)-dione]: the IC50 in experiment [1] lay within 0.05 to 5 mM; in experiment [2] it was 0.05 to 5 mM; in experiment [3], 0.05 to 5 mM; in experiment [4], 5 to 20 mM; in experiment [5], 0.05 to 5 mM; in experiment [6], 0.05 to 5 mM. Further, the IC50 in experiment [7] was 0.05 to 5 mM; in experiment [8] it was 1 to 10 µM.
In the case of `O=C1c2c(nc3c(C(F)(F)F)cccc3c2OCc2ccc(Cl)cc2)-c2cccn21` [Compound 450b, 9-((4-chlorobenzyl)oxy)-5-(trifluoromethyl)-10H-pyrrolizino[1,2-b]quinolin-10-one], the 50% inhibitory concentration (IC50) in experiment [1] was in the range of 0.05 to 5 mM; in experiment [2], 0.05 to 5 mM; in experiment [3], 0.05 to 5 mM; in experiment [4] it was 5 to 20 mM; in experiment [5], 0.05 to 5 mM; in experiment [6], 0.05 to 5 mM. For the same molecule, the IC50 lay within 0.05 to 5 mM in experiment [7] and 1 to 10 µM in experiment [8].
Take `O=C1c2c(n(Cc3ccc(Cl)cc3)c3c(Cl)cccc3c2=O)-c2cccn21` [Compound 451a, 5-Chloro-4-(4-chlorobenzyl)-9H-pyrrolizino[1,2-b]quinoline-9,10(4H)-dione]: the IC50 in experiment [1] was 0.05 to 5 mM; in experiment [2], less than 0.05 mM; in experiment [3] it was 0.05 to 5 mM; in experiment [4] it was 0.05 to 5 mM; in experiment [5], 0.05 to 5 mM; in experiment [6], 0.05 to 5 mM. In addition, the 50% inhibitory concentration (IC50) in experiment [7] lay within 0.05 to 5 mM; in experiment [8], 1 to 10 µM.
In the case of `O=C1c2c(nc3c(Cl)cccc3c2OCc2ccc(Cl)cc2)-c2cccn21` [Compound 451b, 5-chloro-9-((4-chlorobenzyl)oxy)-10H-pyrrolizino[1,2-b]quinolin-10-one], the IC50 in experiment [1] is 0.05 to 5 mM; in experiment [2] it was less than 0.05 mM; in experiment [3], 0.05 to 5 mM; in experiment [4], 0.05 to 5 mM; in experiment [5], 0.05 to 5 mM; in experiment [6], 0.05 to 5 mM. Moreover, the IC50 in experiment [7] was 0.05 to 5 mM; in experiment [8], 1 to 10 µM.
As to `O=C1c2c(n(Cc3ccc(F)cc3)c3c(F)cccc3c2=O)-c2cccn21` [Compound 452a, 5-Fluoro-4-(4-fluorobenzyl)-9H-pyrrolizino[1,2-b]quinoline-9,10(4H)-dione], the 50% inhibitory concentration (IC50) in experiment [1] is 0.05 to 5 mM; in experiment [2], 0.05 to 5 mM; in experiment [3], less than 0.05 mM; in experiment [4], 0.05 to 5 mM; in experiment [5], 0.05 to 5 mM; in experiment [6] it was 0.05 to 5 mM. In addition, the figures for the IC50 in experiment [7] and in experiment [8] were 0.05 to 5 mM and 1 to 10 µM, respectively.
Turning to `O=C1c2c(nc3c(F)cccc3c2OCc2ccc(F)cc2)-c2cccn21` [Compound 452b, 5-fluoro-9-((4-fluorobenzyl)oxy)-10H-pyrrolizino[1,2-b]quinolin-10-one], the IC50 in experiment [1], in experiment [2], in experiment [3], in experiment [4], in experiment [5] and in experiment [6] was 0.05 to 5 mM in each case. In addition, the values for the concentration for half-maximal inhibition (IC50) in experiment [7] and in experiment [8] were 0.05 to 5 mM and 1 to 10 µM, respectively.
With `O=C1c2c(n(Cc3ccc(Cl)cc3)c3c(F)cccc3c2=O)-c2cccn21` [Compound 453a, 4-(4-Chlorobenzyl)-5-fluoro-9H-pyrrolizino[1,2-b]quinoline-9,10(4H)-dione], the IC50 in experiment [1], in experiment [2], in experiment [3], in experiment [4], in experiment [5] and in experiment [6] was 0.05 to 5 mM in each case. Further, the IC50 in experiment [7] was in the range of 0.05 to 5 mM; in experiment [8], 0.1 to 1 µM.
